In patent US9133204B2, “5-membered heterocyclic amides and related compounds” (H. Lundbeck A/S, priority 2007, dated 2015):

Biological target: T1, P2X7 receptor (Homo sapiens, UniProt Q99572)
T1 construct: host or cells: SH-SY5Y
T1 sequence (Q99572 1-595): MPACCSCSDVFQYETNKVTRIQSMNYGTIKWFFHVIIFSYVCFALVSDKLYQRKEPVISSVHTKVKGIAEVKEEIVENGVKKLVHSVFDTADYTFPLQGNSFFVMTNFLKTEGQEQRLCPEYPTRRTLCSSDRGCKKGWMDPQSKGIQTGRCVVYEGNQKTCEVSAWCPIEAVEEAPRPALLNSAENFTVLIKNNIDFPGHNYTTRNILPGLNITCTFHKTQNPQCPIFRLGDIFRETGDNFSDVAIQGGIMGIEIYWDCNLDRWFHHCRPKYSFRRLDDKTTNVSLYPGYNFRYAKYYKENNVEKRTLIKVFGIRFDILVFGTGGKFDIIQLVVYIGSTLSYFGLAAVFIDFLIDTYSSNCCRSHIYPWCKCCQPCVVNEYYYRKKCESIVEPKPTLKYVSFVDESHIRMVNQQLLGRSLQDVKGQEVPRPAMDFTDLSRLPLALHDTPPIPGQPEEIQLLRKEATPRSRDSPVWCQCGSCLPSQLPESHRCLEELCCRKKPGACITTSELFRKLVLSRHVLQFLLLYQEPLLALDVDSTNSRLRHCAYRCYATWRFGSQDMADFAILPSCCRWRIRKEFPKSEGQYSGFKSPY
Assay: High throughput P2X7 calcium mobilization assay (Example 4A)
Assay type: cell-based
Conditions: SH-SY5Y cells; 50% decrease in fluorescence response of cells exposed to 80 μM BzATP; Table I
Procedure: A. High Throughput Assay of P2X7 Receptors
SH-SY5Y cells, ATCC Number CRL-2266, (American Type Culture Collection, Manassas, Va.) are cultured under DMEM/High medium supplemented with 10% FBS, and 10 mM HEPES (Invitrogen Corp., Carlsbad, Calif.) in 5% CO2 and at 37° C. One day prior to the experiment, cells are plated at a density of 100,000 cells/well in a 96 well black/clear TC plate (Corning® Costar®, Sigma-Aldrich Co., St. Louis, Mo.). At the beginning of the experiment, the culture medium is removed and cells are incubated with 50 μL of 2.3 μM Fluo-4 AM dye (Invitrogen Corp.) in the assay solution (5 mM KCl, 9.6 mM NaH2PO4.H2O, 25 mM HEPES, 280 mM sucrose, 5 mM glucose, and 0.5 mM CaCl2; pH is adjusted to 7.4 with NaOH) for an hour at 37° C. After one hour dye incubation, wells are rinsed once with 50 μL assay solution, and are then incubated for an hour at room temperature with 100 μL assay solution containing the test compound. The final concentration of test compound generally ranges from 1 to 2500 nM; for positive control cells, no test compound is added. After the one hour incubation, plates are transferred to a FLIPR^TETRA instrument (Molecular Devices, Sunnyvale, Calif.) for calcium mobilization analysis.
For determination of antagonist activity, 50 μL, of P2X7 agonist (2′(3)-O-(4-benzoyl-benzoyl)adenosine 5′-triphosephate (BzATP; Sigma-Aldrich) in the assay solution is transferred using the FLIPR into the plate, such that the final agonist concentration is 80 μM (about EC50). In negative control cells, 50 μL of assay solution without agonist is added at this stage. The peak fluorescence signal over a 2 minute period is then measured.
First, the average maximum relative fluorescent unit (RFU) response from the negative control wells (no agonist) is subtracted from the maximum response detected for each of the other experimental wells. Second, average maximum RFU response is calculated for the positive control wells (agonist wells).

IC50, ≤ 2000 nM:
Cc1nc(OC2CCNCC2)sc1C(=O)NCC12CC3CC(CC(C3)C1)C2 [Compound 70, N-(adamantan-1-ylmethyl)-4-methyl-2-(piperidin-4-yloxy)-1,3-thiazole-5-carboxamide]
Cc1nc(N2CCNCC2)sc1C(=O)NCC12CC3CC(CC(C3)C1)C2 [Compound 72, N-(adamantan-1-ylmethyl)-4-methyl-2-piperazin-1-yl-1,3-thiazole-5-carboxamide]
Cc1ccsc1C(=O)NCC12CC3CC(CC(C3)C1)C2 [Compound 73, N-(1-adamantylmethyl)-3-methylthiophene-2-carboxamide]
CSc1ccc(C(=O)NCC23CC4CC(CC(C4)C2)C3)s1 [Compound 75, N-(1-adamantylmethyl)-5-(methylthio)thiophene-2-carboxamide]
O=C(NCC12CC3CC(CC(C3)C1)C2)c1ccc(Br)s1 [Compound 76, N-(1-adamantylmethyl)-5-bromothiophene-2-carboxamide]
CCCc1ccc(C(=O)NCC23CC4CC(CC(C4)C2)C3)s1 [Compound 78, N-(1-adamantylmethyl)-5-propylthiophene-2-carboxamide]
Cn1nc(C(F)(F)F)cc1-c1ccc(C(=O)NCC23CC4CC(CC(C4)C2)C3)s1 [Compound 80, N-(1-adamantylmethyl)-5-[1-methyl-3-(trifluoromethyl)-1H-pyrazol-5-yl]thiophene-2-carboxamide]
Cn1nc(C(F)(F)F)cc1-c1ccc(C(=O)NCCC23CC4CC(CC(C4)C2)C3)s1 [Compound 85, N-[2-(1-adamantyl)ethyl]-5-[1-methyl-3-(trifluoromethyl)-1H-pyrazol-5-yl]thiophene-2-carboxamide]
Cc1csc(C(=O)NCC23CC4CC(CC(C4)C2)C3)c1Cl [Compound 87, N-(adamantan-1-ylmethyl)-3-chloro-4-methylthiophene-2-carboxamide]
Cc1cnc(-n2cc(C(=O)NCC34CC5CC(CC(C5)C3)C4)c(C)n2)nc1Br [Compound 91, N-(adamantan-1-ylmethyl)-1-(4-bromo-5-methylpyrimidin-2-yl)-3-methyl-1H-pyrazole-4-carboxamide]
CNc1nc(-n2cc(C(=O)NCC34CC5CC(CC(C5)C3)C4)c(C)n2)ncc1C [Compound 92, N-(adamantan-1-ylmethyl)-3-methyl-1-[5-methyl-4-(methylamino)pyrimidin-2-yl]-1H-pyrazole-4-carboxamide]
Cc1cnc(-n2cc(C(=O)NCC34CC5CC(CC(C5)C3)C4)c(C)n2)nc1-c1ccccc1 [Compound 93, N-(adamantan-1-ylmethyl)-3-methyl-1-(5-methyl-4-phenylpyrimidin-2-yl)-1H-pyrazole-4-carboxamide]
Cc1cnc(-n2cc(C(=O)NCC34CC5CC(CC(C5)C3)C4)c(C)n2)nc1 [Compound 94, N-(adamantan-1-ylmethyl)-3-methyl-1-(5-methylpyrimidin-2-yl)-1H-pyrazole-4-carboxamide]
Cc1cnc(-n2cc(C(=O)NCC34CC5CC(CC(C5)C3)C4)c(C)n2)nc1-c1cccnc1 [Compound 95, N-(adamantan-1-ylmethyl)-3-methyl-1-(5-methyl-4-pyridin-3-ylpyrimidin-2-yl)-1H-pyrazole-4-carboxamide]
Cc1cnc(-n2cc(C(=O)NCC34CC5CC(CC(C5)C3)C4)c(C)n2)nc1C(N)=O [Compound 96, 2-{4-[(adamantan-1-ylmethyl)carbamoyl]-3-methyl-1H-pyrazol-1-yl}-5-methylpyrimidine-4-carboxamide]
Cc1ccc(-n2cc(C(=O)NCC34CC5CC(CC(C5)C3)C4)c(C)n2)nc1 [Compound 97, N-(adamantan-1-ylmethyl)-3-methyl-1-(5-methylpyridin-2-yl)-1H-pyrazole-4-carboxamide]
Cc1nn(-c2ccccn2)cc1C(=O)NCC12CC3CC(CC(C3)C1)C2 [Compound 98]
Cc1nn(-c2nccc(N)n2)cc1C(=O)NCC12CC3CC(CC(C3)C1)C2 [Compound 99, N-(adamantan-1-ylmethyl)-1-(4-aminopyrimidin-2-yl)-3-methyl-1H-pyrazole-4-carboxamide]
Cc1cnc(-n2cc(C(=O)NCC34CC5CC(CC(C5)C3)C4)c(C(C)C)n2)nc1N [Compound 100, N-(adamantan-1-ylmethyl)-1-(4-amino-5-methylpyrimidin-2-yl)-3-isopropyl-1H-pyrazole-4-carboxamide]
Cc1nn(-c2ccncc2)cc1C(=O)NCC12CC3CC(CC(C3)C1)C2 [Compound 101, N-(adamantan-1-ylmethyl)-3-methyl-1-pyridin-4-yl-1H-pyrazole-4-carboxamide]
CCc1cnc(-n2cc(C(=O)NCC34CC5CC(CC(C5)C3)C4)c(C)n2)nc1 [Compound 102, N-(adamantan-1-ylmethyl)-1-(5-ethylpyrimidin-2-yl)-3-methyl-1H-pyrazole-4-carboxamide]
C=Cc1nc(-n2cc(C(=O)NCC34CC5CC(CC(C5)C3)C4)c(C)n2)ncc1C [Compound 103, N-(adamantan-1-ylmethyl)-3-methyl-1-(5-methyl-4-vinylpyrimidin-2-yl)-1H-pyrazole-4-carboxamide]
Cc1cnc(-n2cc(C(=O)NCC34CC5CC(CC(C5)C3)C4)c(C)n2)nc1C(=O)N1CCCC1 [Compound 104, N-(adamantan-1 ylmethyl)-3-methyl-1-[5-methyl-4-(pyrrolidin-1-ylcarbonyl)pyrimidin-2-yl]-1H-pyrazole-4-carboxamide]
Cc1cnc(-n2cc(C(=O)NCC34CC5CC(CC(C5)C3)C4)c(C)n2)nc1C(=O)N1CCC[C@@H](N)C1 [Compound 105, N-(adamantan-1-ylmethyl)-1-(4-{[(3R)-3-aminopiperidin-1-yl]carbonyl}-5-methylpyrimidin-2-yl)-3-methyl-1H-pyrazole-4-carboxamide]
CCc1nc(-n2cc(C(=O)NCC34CC5CC(CC(C5)C3)C4)c(C)n2)ncc1C [Compound 106, N-(adamantan-1-ylmethyl)-1-(4-ethyl-5-methylpyrimidin-2-yl)-3-methyl-1H-pyrazole-4-carboxamide]
CCNC(=O)c1nc(-n2cc(C(=O)NCC34CC5CC(CC(C5)C3)C4)c(C)n2)ncc1C [Compound 107, 2-{4-[(adamantan-1-ylmethyl)carbamoyl]-3-methyl-1H-pyrazol-1-yl]-N-ethyl-5-methylpyrimidine-4-carboxamide]
CCCNC(=O)c1nc(-n2cc(C(=O)NCC34CC5CC(CC(C5)C3)C4)c(C)n2)ncc1C [Compound 108, 2-{4-[(adamantan-1-ylmethyl)carbamoyl]-3-methyl-1H-pyrazol-1-yl}-5-methyl-N-propylpyrimidine-4-carboxamide]
